Results as given in US12577234B2, “Antagonists of the muscarinic acetylcholine receptor M4” (Vanderbilt University, priority 2017, dated 2026).

Target: T1, human mAChR M4 (Homo sapiens, UniProt P08173)
T1 construct: expressed in transfected cells; host or cells: CHO-K1 (ATCC), stably co-expressing chimeric G protein Gqi5
T1 sequence (P08173 1-479): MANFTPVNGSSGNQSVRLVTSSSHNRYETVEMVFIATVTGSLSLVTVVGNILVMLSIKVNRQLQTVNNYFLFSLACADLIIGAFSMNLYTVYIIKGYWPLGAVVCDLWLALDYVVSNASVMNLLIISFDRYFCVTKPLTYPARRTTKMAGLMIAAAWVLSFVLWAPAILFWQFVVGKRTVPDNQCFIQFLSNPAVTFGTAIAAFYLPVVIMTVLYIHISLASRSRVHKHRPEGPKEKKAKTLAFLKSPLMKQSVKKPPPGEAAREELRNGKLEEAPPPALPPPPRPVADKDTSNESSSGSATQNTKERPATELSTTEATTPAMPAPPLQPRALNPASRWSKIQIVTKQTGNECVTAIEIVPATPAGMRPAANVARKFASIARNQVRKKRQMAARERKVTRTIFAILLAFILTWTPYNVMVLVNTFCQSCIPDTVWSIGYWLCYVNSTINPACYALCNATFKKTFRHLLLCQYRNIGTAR
Test: mAChR M4 cell-based functional assay (calcium mobilization, EC80 acetylcholine), human M4
Conditions: for IC50: M4/Gqi5/CHO-K1 cells, decrease of EC80 acetylcholine response; for Emin: human M4, % ACh maximum at 30 μM
In short: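 CHO-K1 cells stably expressing human M4 with chimeric Gqi5; intracellular calcium rise read on FDSS as fluorescence static ratio at 1 Hz. Compounds in 10-point 1:3 dilution series; IC50 taken as concentration-dependent decrease of the EC80 acetylcholine response, four-parameter logistic fit.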

IC50 (Table 9) | Emin (Table 9) | Human M4 Emin (Table 10) | IC50 (Table 10) | Structure (SMILES)
2010 nM | 9.23% | – | – | Cc1cccnc1CN1C[C@H]2C[C@H](CNc3ccc(-c4cn(C)nc4C)nn3)C[C@H]2C1 [Compound 73, N-[[(3aR,5s,6aS)-2-[(3-methyl-2-pyridyl)methyl]-3,3a,4,5,6,6a-hexahydro-1H-cyclopenta[c]pyrrol-5-yl]methyl]-6-(1,3-dimethylpyrazol-4-yl)pyridazin-3-amine]
100 nM | 3.21% | – | – | Fc1ccc(Cl)c(-c2ccc(O[C@@H]3C[C@@H]4CN(CC5CC6C=CC5C6)C[C@@H]4C3)nn2)c1 (stereo partly drawn) [Compound 53, (3aR,5r,6aS)-2-(5-bicyclo[2.2.1]hept-2-enylmethyl)-5-[6-(2-chloro-5-fluoro-phenyl)pyridazin-3-yl]oxy-3,3a,4,5,6,6a-hexahydro-1H-cyclopenta[c]pyrrole]
8.6 nM | 4.96% | – | – | Fc1ccc(Cl)c(-c2ccc(N[C@H]3C[C@@H]4CN(CC5CCCCC5)C[C@@H]4C3)nn2)c1 [Compound 31, (3aR,5s,6aS)-N-[6-(2-chloro-5-fluoro-phenyl)pyridazin-3-yl]-2-(cyclohexylmethyl)-3,3a,4,5,6,6a-hexahydro-1H-cyclopenta[c]pyrrol-5-amine]
2150 nM | 5.01% | – | – | Cc1nn(C)cc1-c1ccc(N[C@@H]2C[C@@H]3CN(CC4CCCCCC4)C[C@@H]3C2)c(F)c1F [Compound 44, (3aR,5r,6aS)-2-(cycloheptylmethyl)-N-[4-(1,3-dimethylpyrazol-4-yl)-2,3-difluoro-phenyl]-3,3a,4,5,6,6a-hexahydro-1H-cyclopenta[c]pyrrol-5-amine]
422 nM | 4.00% | – | – | Cc1nn(C)cc1-c1ccc(N[C@@H]2C[C@@H]3CN(CC4CC5C=CC4C5)C[C@@H]3C2)c(F)c1F (stereo partly drawn) [Compound 42, (3aR,5r,6aS)-2-(5-bicyclo[2.2.1]hept-2-enylmethyl)-N-[4-(1,3-dimethylpyrazol-4-yl)-2,3-difluoro-phenyl]-3,3a,4,5,6,6a-hexahydro-1H-cyclopenta[c]pyrrol-5-amine]
2230 nM | 8.70% | – | – | Cc1nn(C)cc1-c1ccc(OCC2C[C@@H]3CN(CC4CCOCC4)C[C@@H]3C2)nn1 (stereo partly drawn) [Compound 98, (3aR,6aS)-5-[[6-(1,3-dimethylpyrazol-4-yl)pyridazin-3-yl]oxymethyl]-2-(tetrahydropyran-4-ylmethyl)-3,3a,4,5,6,6a-hexahydro-1H-cyclopenta[c]pyrrole]
0.8 nM | 6.3% | – | – | Cc1cnn(C)c1-c1ccc(N[C@H]2C[C@@H]3CN(CC4CC5C=CC4C5)C[C@@H]3C2)nn1 (stereo partly drawn) [Compound 17, (3aR,5s,6aS)-2-(5-bicyclo[2.2.1]hept-2-enylmethyl)-N-[6-(2,4-dimethylpyrazol-3-yl)pyridazin-3-yl]-3,3a,4,5,6,6a-hexahydro-1H-cyclopenta[c]pyrrol-5-amine]
19.2 nM | 2.64% | – | – | CC(C)(C)CCN1C[C@H]2C[C@H](CNc3ccc(-c4cc(F)ccc4Cl)nn3)C[C@H]2C1 [Compound 70, N-[[(3aR,5s,6aS)-2-(3,3-dimethylbutyl)-3,3a,4,5,6,6a-hexahydro-1H-cyclopenta[c]pyrrol-5-yl]methyl]-6-(2-chloro-5-fluoro-phenyl)pyridazin-3-amine]
57.8 nM | 4.93% | – | – | Cc1cnn(C)c1-c1ccc(NCCC2C[C@@H]3CN(Cc4ccccc4F)C[C@@H]3C2)nn1 (stereo partly drawn) [Compound 127, N-[2-[(3aR,6aS)-2-[(2-fluorophenyl)methyl]-3,3a,4,5,6,6a-hexahydro-1H-cyclopenta[c]pyrrol-5-yl]ethyl]-6-(2,4-dimethylpyrazol-3-yl)pyridazin-3-amine]
– | – | 4% | 2.09 nM | FC1(F)CCCN(c2ccc(N[C@H]3C[C@@H]4CN(CC5CCOCC5)C[C@@H]4C3)nn2)C1 [Compound 196, (3aR,5s,6aS)-N-[6-(3,3-difluoro-1-piperidyl)pyridazin-3-yl]-2-(tetrahydropyran-4-ylmethyl)-3,3a,4,5,6,6a-hexahydro-1H-cyclopenta[c]pyrrol-5-amine]
